Source: paper PMC8286840, “Identifying SARS-CoV-2 antiviral compounds by screening for small molecule inhibitors of Nsp3 papain-like protease” (Biochemical Journal, 2021)
Where a name gives a salt, the structure may show the parent alone. Read-outs that look alike come from different tables or passages of the source.

Tests used:
[1] = target: T1, SARS-CoV-2 PLpro (nsp3 1564–1878) (Severe acute respiratory syndrome coronavirus 2, UniProt P0DTD1); test: biochemical; parameters: FRET-quenched peptide (Pro3) cleavage by PLpro, 10 min pre-incubation, slope over 20 min, normalised to no-compound control; conditions: read-out: % of control remaining
[2] = target: T1, SARS-CoV-2 PLpro (nsp3 1564–1878); test: biochemical; parameters: FRET-quenched peptide (Pro3) cleavage by PLpro, 10 min pre-incubation, slope over 20 min, normalised to no-compound control; conditions: read-out: % of control remaining; remark: listed apart in the source

## CC(C(=O)O)c1ccccc1 (stereo not shown) [2-Phenylpropionic acid]
[1]; Well no.=6837, low concentration screen
  remaining activity at 1.25 µM: 94.4%
[2]; Well no.=6837, high concentration screen
  remaining activity at 3.75 µM: 95.3%

## O=c1cc[nH]c(=S)[nH]1 [2-Thiouracil]
[1]; Well no.=5325, low concentration screen
  remaining activity at 1.25 µM: 90.5%
[2]; Well no.=5325, high concentration screen
  remaining activity at 3.75 µM: 90.8%

## CN(C)c1ccccc1CN1CCCN(Cc2ccccc2N(C)C)C1c1ccncc1 [2-[(3-[2-(dimethylamino)benzyl]-2-(4-pyridinyl)tetrahydro-1(2H)-pyrimidinyl)methyl]-N,N-dimethylaniline]
[1]; Well no.=5454, low concentration screen
  remaining activity at 1.25 µM: 96.1%
[2]; Well no.=5454, high concentration screen
  remaining activity at 3.75 µM: 100%

## Cc1nc(C(=O)N2CCC[C@H]2Cc2nnc(-c3ccccc3)o2)c(-c2ccccc2F)s1 [2-[((2S)-1-{[5-(2-fluorophenyl)-2-methyl-1,3-thiazol-4-yl]carbonyl}-2-pyrrolidinyl)methyl]-5-phenyl-1,3,4-oxadiazole]
[1]; Well no.=5406, low concentration screen
  remaining activity at 1.25 µM: 90.5%
[2]; Well no.=5406, high concentration screen
  remaining activity at 3.75 µM: 102%

## CCCCCCCCc1ccc(CCC(N)(CO)CO)cc1 [2-amino-2-[2-(4-octylphenyl)ethyl]-1,3-propanediol hydrochloride]
[1]; Well no.=6045, low concentration screen
  remaining activity at 1.25 µM: 93.4%
[2]; Well no.=6045, high concentration screen
  remaining activity at 3.75 µM: 95.1%

## COc1cc(Br)c(S(=O)(=O)Nc2ccc(Cl)c(O[C@@H]3CCN(C)C3)c2)cc1OC [2-bromo-N-(4-chloro-3-{[(3R)-1-methyl-3-pyrrolidinyl]oxy}phenyl)-4,5-dimethoxybenzenesulfonamide]
[1]; Well no.=5501, low concentration screen
  remaining activity at 1.25 µM: 99.8%
[2]; Well no.=5501, high concentration screen
  remaining activity at 3.75 µM: 105%

## CCCCCCCCCCCCCCC(Br)C(=O)O (stereo not shown) [2-bromohexadecanoic acid]
[1]; Well no.=5893, low concentration screen
  remaining activity at 1.25 µM: 106%
[2]; Well no.=5893, high concentration screen
  remaining activity at 3.75 µM: 106%

## CCCCC1=NC2(CCCC2)C(=O)N1Cc1ccc(-c2ccccc2-c2nnn[nH]2)cc1 [2-butyl-3-{[2'-(1H-tetraazol-5-yl)[1,1'-biphenyl]-4-yl]methyl}-1,3-diazaspiro[4.4]non-1-en-4-one]
[1]; Well no.=5468, low concentration screen
  remaining activity at 1.25 µM: 98%
[2]; Well no.=5468, high concentration screen
  remaining activity at 3.75 µM: 104%

## O=C(O)c1ccc(-c2c[nH]c3ncc(-c4ccccc4)cc23)cc1C1CCCC1 [2-cyclopentyl-4-(5-phenyl-1H-pyrrolo[2,3-b]pyridin-3-yl)benzoic acid]
[1]; Well no.=5864, low concentration screen
  remaining activity at 1.25 µM: 93%
[2]; Well no.=5864, high concentration screen
  remaining activity at 3.75 µM: 94.4%

## C[N+](C)(C)CCO [2-hydroxy-N,N,N-trimethylethanaminium chloride]
[1]; Well no.=5483, low concentration screen
  remaining activity at 1.25 µM: 98.3%
[2]; Well no.=5483, high concentration screen
  remaining activity at 3.75 µM: 97.8%

## CC(N)(COP(=O)(O)O)C(=O)O (stereo not shown) [2-methyl-O-phosphonoserine]
[1]; Well no.=5427, low concentration screen
  remaining activity at 1.25 µM: 96.2%
[2]; Well no.=5427, high concentration screen
  remaining activity at 3.75 µM: 101%

## CCc1nn(CCCN2CCN(c3cccc(Cl)c3)CC2)c(=O)n1CCOc1ccccc1 [2-{3-[4-(3-chlorophenyl)-1-piperazinyl]propyl}-5-ethyl-4-(2-phenoxyethyl)-2,4-dihydro-3H-1,2,4-triazol-3-one hydrochloride]
[1]; Well no.=5691, low concentration screen
  remaining activity at 1.25 µM: 99.4%
[2]; Well no.=5691, high concentration screen
  remaining activity at 3.75 µM: 96.7%

## OCCOc1ccc(/C(=C(/CCCl)c2ccccc2)c2ccccc2)cc1 [2-{4-[(1Z)-4-chloro-1,2-diphenyl-1-butenyl]phenoxy}ethanol]
[1]; Well no.=5956, low concentration screen
  remaining activity at 1.25 µM: 92.3%
[2]; Well no.=5956, high concentration screen
  remaining activity at 3.75 µM: 93.6%

## Cc1ccc(OCCSc2ncccn2)c(Br)c1 [2-{[2-(2-bromo-4-methylphenoxy)ethyl]sulfanyl}pyrimidine]
[1]; Well no.=6035, low concentration screen
  remaining activity at 1.25 µM: 95.4%
[2]; Well no.=6035, high concentration screen
  remaining activity at 3.75 µM: 94.6%

## CCCCCCCC/C=C\CCCCCCC(O)C(=O)O (stereo not shown) [2OHOA]
[1]; Well no.=5534, low concentration screen
  remaining activity at 1.25 µM: 97.8%
[2]; Well no.=5534, high concentration screen
  remaining activity at 3.75 µM: 96.7%

## N/C(=N\C(=O)c1nc(Cl)c(N)nc1N)NCc1ccc(Cl)c(Cl)c1 [3',4'-Dichlorobenzamil]
[1]; Well no.=440, low concentration screen
  remaining activity at 1.25 µM: 99.5%
[2]; Well no.=440, high concentration screen
  remaining activity at 3.75 µM: 88.3%

## [N-]=[N+]=N[C@H]1[C@@H](O)[C@H](n2cc(F)c(N)nc2=O)O[C@@H]1CO [3'-Azido-3'-deoxy-5-fluorocytidine]
[1]; Well no.=7910, low concentration screen
  remaining activity at 1.25 µM: 96.3%
[2]; Well no.=7910, high concentration screen
  remaining activity at 3.75 µM: 95%

## Cc1cn([C@@H]2O[C@H](CO)[C@@H](N=[N+]=[N-])[C@H]2O)c(=O)nc1N [3'-Azido-3'-deoxy-5-methylcytidine]
[1]; Well no.=7804, low concentration screen
  remaining activity at 1.25 µM: 98.2%
[2]; Well no.=7804, high concentration screen
  remaining activity at 3.75 µM: 97.5%

## [N-]=[N+]=N[C@@H]1[C@H](O)[C@@H](n2ccc(=O)[nH]c2=O)O[C@H]1CO [3'-Azido-3'-deoxy-beta-L-uridine]
[1]; Well no.=7758, low concentration screen
  remaining activity at 1.25 µM: 97.9%
[2]; Well no.=7758, high concentration screen
  remaining activity at 3.75 µM: 102%

## O=c1oc(Cl)c(Cl)c2ccccc12 [3,4-Dichloroisocoumarin]
[1]; Well no.=582, low concentration screen
  remaining activity at 1.25 µM: 100%
[2]; Well no.=582, high concentration screen
  remaining activity at 3.75 µM: 103%

## O=C(O)Cc1ccc(O)c(O)c1 [3,4-Dihydroxybenzeneacetic acid]
[1]; Well no.=6355, low concentration screen
  remaining activity at 1.25 µM: 104%
[2]; Well no.=6355, high concentration screen
  remaining activity at 3.75 µM: 106%

## O=C(O)Cc1ccc(O)c(O)c1 [3,4-Dihydroxyphenylacetic acid]
[1]; Well no.=442, low concentration screen
  remaining activity at 1.25 µM: 103%
[2]; Well no.=442, high concentration screen
  remaining activity at 3.75 µM: 104%

## COc1ccc(CC(=O)O)cc1OC [3,4-Dimethoxyphenylacetic acid]
[1]; Well no.=6639, low concentration screen
  remaining activity at 1.25 µM: 103%
[2]; Well no.=6639, high concentration screen
  remaining activity at 3.75 µM: 104%

## O=C(O)c1cc(O)cc(O)c1 [3,5-Dihydroxybenzoic acid]
[1]; Well no.=6829, low concentration screen
  remaining activity at 1.25 µM: 101%
[2]; Well no.=6829, high concentration screen
  remaining activity at 3.75 µM: 117%

## C#CCn1c(=O)c2c(ncn2C)n(C)c1=O [3,7-Dimethyl-I-propargylxanthine]
[1]; Well no.=498, low concentration screen
  remaining activity at 1.25 µM: 99.2%
[2]; Well no.=498, high concentration screen
  remaining activity at 3.75 µM: 97.4%

## CC(C)=CCc1cc2c(cc1O)oc(=O)c1c3ccc(O)cc3oc21 [3,9-dihydroxy-2-(3-methyl-2-butenyl)-6H-[1]benzofuro[3,2-c]chromen-6-one]
[1]; Well no.=6091, low concentration screen
  remaining activity at 1.25 µM: 95.4%
[2]; Well no.=6091, high concentration screen
  remaining activity at 3.75 µM: 87.9%

## CN(C)c1ccnc2sc3c(=O)n(N4CCCCCC4)cnc3c12 [3-(1-azepanyl)-9-(dimethylamino)pyrido[3',2':4,5]thieno[3,2-d]pyrimidin-4(3H)-one]
[1]; Well no.=5949, low concentration screen
  remaining activity at 1.25 µM: 92.3%
[2]; Well no.=5949, high concentration screen
  remaining activity at 3.75 µM: 93.5%

## Fc1ccc(C(OCCCc2cnc[nH]2)c2ccc(F)cc2)cc1 [3-(1H-Imidazol-4-yl)propyl di(p-fluorophenyl)methyl ether hydrochloride]
[1]; Well no.=1019, low concentration screen
  remaining activity at 1.25 µM: 93.6%
[2]; Well no.=1019, high concentration screen
  remaining activity at 3.75 µM: 95.3%

## N#Cc1cccc(-c2c[nH]c3ncnc(N4CCOCC4)c23)c1 [3-(4-morpholino-7H-pyrrolo[2,3-d]pyrimidin-5-yl)benzonitrile]
[1]; Well no.=5684, low concentration screen
  remaining activity at 1.25 µM: 97.4%
[2]; Well no.=5684, high concentration screen
  remaining activity at 3.75 µM: 99.8%

## Cc1cccc(-c2nn(C(=S)Nc3ccccc3)cc2-c2ccnc3ccccc23)n1 [3-(6-methyl-2-pyridinyl)-N-phenyl-4-(4-quinolinyl)-1H-pyrazole-1-carbothioamide]
[1]
  remaining activity at 1.25 µM: 99.2%
[2]
  remaining activity at 3.75 µM: 100%

## COc1ccc(C(=O)Nc2c(Cl)cncc2Cl)cc1OC1CCCC1 [3-(cyclopentyloxy)-N-(3,5-dichloro-4-pyridinyl)-4-methoxybenzamide]
[1]; Well no.=5876, low concentration screen
  remaining activity at 1.25 µM: 105%
[2]; Well no.=5876, high concentration screen
  remaining activity at 3.75 µM: 104%

## NCCCS(=O)(=O)O [3-Amino-1-propanesulfonic acid sodium]
[1]; Well no.=301, low concentration screen
  remaining activity at 1.25 µM: 98%
[2]; Well no.=301, high concentration screen
  remaining activity at 3.75 µM: 98.1%
